15 molecules from PubChem BioAssay (NCI) can be followed below.

Holding throughout (test): inhibition of tumour cell growth, NCI panel, 48 h
Test [1] deals with KM12 colon.
Test [2] relates to RPMI-8226 leukemia.
The subject of test [3] is DMS 273 small cell lung.
In test [4] the test system is 786-0 renal.
Test [5] deals with NCI/ADR-RES ovarian.
Test [6] has as its system UO-31 renal.
Test [7] relates to HOP-62 NSCLC.
In test [8] the test system is M19-MEL melanoma.
Test [9] has as its system SNB-19 CNS.
In test [10] the test system is SK-MEL-28 melanoma.

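Interpolation was linear, between the two tested concentrations surrounding the appropriate level; five concentrations were tested over 48 hours in 96-well plates. GI50 is the concentration that inhibits growth by half. Definition used: TGI = concentration required for complete inhibition of growth.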

Consider `CS(=O)(=O)OCCCNCCCOS(C)(=O)=O`, for which the TGI in test [1] was 5510 µM; in [2] it was 6780 µM; in test [3], 1150 µM; in test [4] it was 6310 µM; in [5] it was 6040 µM; in test [6], 6430 µM. For the same molecule, the TGI in [7] amounted to 6030 µM; in test [8], 5560 µM; in test [9] it was 6450 µM; in [10], 7560 µM.

Turning to `C1CN(c2nnc(N3CCC3)nn2)C1`, the TGI was > 100 µM in test [1]; > 100 µM in [2]; > 60.2 µM in [3]; 49.5 µM in [4]; > 100 µM in test [5]; > 100 µM in test [6]. Moreover, the TGI in test [7] is > 100 µM; in test [8], 29.4 µM; in test [9], > 79.5 µM; in test [10] it was > 68.3 µM.

Consider `Cc1ccc(NC(=O)C(=O)CC(=O)c2c(C)n([O-])c3ccccc3[n+]2=O)cc1C`, for which the TGI in test [1], in [2], in test [3], in test [4], in test [6] and in [7] was > 100 µM throughout. For the same molecule, the TGI in test [8], in [9] and in test [10] was > 100 µM throughout.

As for `CCCCCCCC1(c2ccc(N)cc2)CCC(=O)NC1=O` (stereo not given), the TGI is > 100 µM in test [1]; 40.8 µM in [2]; 73.8 µM in test [3]; > 100 µM in [4]; 74.8 µM in test [6]; > 100 µM in test [7]. For the same molecule, the TGI in test [8], in test [9] and in test [10] was > 100 µM in each case.

Take `CN(C)CC1CC/C(=C\c2ccc3c(c2)OCO3)C1=O` (stereo not given): the TGI in [1] is 18.9 µM; in [3], 30.9 µM; in test [4], 13 µM; in test [5], 12.4 µM; in test [6], 24.8 µM; in test [7], > 70.1 µM. In addition, the TGI in test [8] was determined as 35.5 µM; in [9], 36 µM; in test [10] it was 22.9 µM.

`COCCOc1cc(C)cc(/C=C(C)/C=C/C2=C(C)CCCC2(C)C)n1`: the TGI in [1] was > 100 µM; in [2] it was 52.3 µM; in test [3], > 100 µM; in test [4], > 100 µM; in test [6], > 100 µM; in [7], > 100 µM. The TGI in test [8], in [9] and in test [10] was > 100 µM throughout.

As to `O=C(C(=O)n1ncc(Cl)c(Cl)c1=O)n1ncc(Cl)c(Cl)c1=O`, the TGI is > 100 µM in test [1]; 26.8 µM in [2]; 44.5 µM in test [3]; 44.6 µM in test [4]; > 100 µM in test [6]; > 100 µM in [7]. Further, the TGI in test [8] is 48.7 µM; in [9], > 100 µM; in test [10], 59.3 µM.

For the molecule `CCOC(=O)c1cc(-c2ccc(-c3cc(C(=O)OCC)c(C#N)c(N)c3C#N)cc2)c(C#N)c(N)c1C#N`, the TGI in test [1], in test [2], in test [3], in [4], in [6] and in test [7] was > 100 µM each time. For the same molecule, the TGI in test [8], in [9] and in test [10] was > 100 µM throughout.

Regarding `CCC[CH2][Sn]([CH2]CCC)([S]C#N)[S]C#N`, the GI50 in test [1] is 1.45 µM; in [2], 0.229 µM; in test [3] it was 1.63 µM; in test [4], 1.2 µM; in test [6], 1.61 µM; in [7] it was 1.98 µM. Besides, the GI50 in [8] was 0.909 µM; in test [9], 1.12 µM; in test [10], 0.753 µM. The TGI in test [1] turned out to be 3.11 µM; in test [2], 1.34 µM; in [3] it was 4.21 µM; in test [4] it was 2.49 µM; in test [6] it was 2.98 µM; in [7] it was 3.58 µM. For the same molecule, the TGI was determined as 5.04 µM in test [8], 2.36 µM in test [9] and 2.15 µM in [10].

Regarding `CC1=C(SC#N)S(=O)(=O)N(c2ccccc2)C(C)=C1SC#N`, the TGI in test [1], in test [2], in [3], in test [4], in test [6] and in test [8] was > 100 µM throughout. The TGI in [9] was 76.5 µM; in test [10], > 100 µM.

With `Cc1ccc2nc(NC(=O)C(=O)C(C#N)c3ccc(Cl)cc3)sc2c1` (stereo not given), the TGI in test [1], in [2], in test [3], in test [4], in [6] and in test [7] was > 50 µM each time. Moreover, the TGI in [8], in [9] and in test [10] was > 50 µM each time.

Take `C/C(CN1C(=O)c2ccccc2C1=O)=N\NS(=O)(=O)c1cccc(C(=O)O)c1`: the TGI in test [1], in test [2], in test [3], in test [4], in [6] and in test [7] was > 100 µM throughout. Further, the TGI in test [8], in test [9] and in test [10] was > 100 µM throughout.

Turning to `NC1c2ccccc2Nc2ccccc21`, the TGI amounted to 17 µM in test [1]; 19.6 µM in test [2]; 25.7 µM in [3]; 15.9 µM in test [4]; 13.4 µM in [6]; 26.7 µM in test [7]. Besides, the figures for the TGI in test [8], in [9] and in test [10] were 13.9 µM, 27.7 µM and 14.2 µM, respectively.

In the case of `CC(C)c1cc(C(C)C)c(S(=O)(=O)N=[N+]=[N-])c(C(C)C)c1`, the TGI is > 100 µM in test [1]; 97.6 µM in [2]; > 100 µM in test [3]; > 100 µM in test [4]; > 100 µM in test [6]; > 100 µM in [7]. The TGI in [8], in test [9] and in test [10] was > 100 µM each time.

On to `CC(C)c1cccc(C(C)C)c1N1C(=O)C(=O)C(c2nc3ccccc3o2)C(=O)C1=O`, for which the TGI in test [1] was > 100 µM; in [2] it was > 100 µM; in test [3], > 100 µM; in [4] it was 84.3 µM; in test [6], > 100 µM; in test [7], > 100 µM. The TGI in test [8], in test [9] and in test [10] was > 100 µM throughout.
